Measured values as given in US8952157B2, “Apoptosis-inducing agents for the treatment of cancer and immune and autoimmune diseases” (AbbVie Inc., priority 2008, dated 2015).

target: GST-Bcl-2 (Homo sapiens (Human), UniProt P10415); experiment: Time Resolved-Fluorescence Resonance Energy Transfer (TR-FRET) Bcl-2 binding assay; conditions: not given
Method in brief: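 Competition TR-FRET: GST-Bcl-2 with fluorescent Bak peptide probe and Tb-anti-GST antibody, compounds serially diluted from 50 μM (2× start, 10% DMSO).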

Sequence of GST-Bcl-2 (P10415 whole entry): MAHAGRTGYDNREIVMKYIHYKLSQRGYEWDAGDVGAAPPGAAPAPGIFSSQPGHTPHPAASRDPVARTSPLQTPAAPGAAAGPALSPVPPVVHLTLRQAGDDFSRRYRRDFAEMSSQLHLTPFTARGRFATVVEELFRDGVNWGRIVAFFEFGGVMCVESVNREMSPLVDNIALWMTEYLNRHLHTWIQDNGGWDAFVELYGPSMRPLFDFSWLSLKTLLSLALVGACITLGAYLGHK

Molecule `CC1(C)CCC(CN2CCN(c3ccc(C(=O)NS(=O)(=O)c4ccc(N[C@H]5CC[C@H](N6CCOCC6)CC5)c([N+](=O)[O-])c4)c(Oc4cc5cc[nH]c5cc4F)c3)CC2)=C(c2ccc(Cl)cc2)C1` [Example 234, Trans-4-(4-{[2-(4-chlorophenyl)-4,4-dimethylcyclohex-1-en-1-yl]methyl}piperazin-1-yl)-2-[(6-fluoro-1H-indol-5-yl)oxy]-N-({4-[(4-morpholin-4-ylcyclohexyl)amino]-3-nitrophenyl}sulfonyl)benzamide] has a Ki of 0.099 nM.

same assay, conditions: GST-Bcl-2 1 nM, F-Bak peptide probe 100 nM, Tb-anti-GST antibody 1 nM; Ki by Wang's equation

Point of comparison: `CC1(C)CCC(CN2CCN(c3ccc(C(=O)NS(=O)(=O)c4ccc(N[C@@H]5CCCN(C(CF)CF)C5)c([N+](=O)[O-])c4)c(Oc4cnc(N)c(Cl)c4)c3)CC2)=C(c2ccc(Cl)cc2)C1` [Example 382, 2-[(6-amino-5-chloropyridin-3-yl)oxy]-4-(4-{[2-(4-chlorophenyl)-4,4-dimethylcyclohex-1-en-1-yl]methyl}piperazin-1-yl)-N-{[4-({(3R)-1-[2-fluoro-1-(fluoromethyl)ethyl]piperidin-3-yl}amino)-3-nitrophenyl]sulfonyl}benzamide], Ki 0.114 nM. Against it:
- N#Cc1ccc(Oc2cc(N3CCN(Cc4ccccc4-c4ccc(Cl)cc4)CC3)ccc2C(=O)NS(=O)(=O)c2ccc(NCC3CCOCC3)c([N+](=O)[O-])c2)cc1 [Example 72, 4-(4-((4′-chloro-1,1′-biphenyl-2-yl)methyl)piperazin-1-yl)-2-(4-cyanophenoxy)-N-((3-nitro-4-((tetrahydro-2H-pyran-4-ylmethyl)amino)phenyl)sulfonyl)benzamide] — 280-fold higher, 31.7 nM
- CN1CCC(Nc2ccc(S(=O)(=O)NC(=O)c3ccc(N4CCN(CC5=C(c6ccc(Cl)cc6)CC(C)(C)CC5)CC4)cc3OCc3csc(N)n3)cc2[N+](=O)[O-])CC1 [Example 223, 2-[(2-amino-1,3-thiazol-4-yl)methoxy]-4-(4-{[2-(4-chlorophenyl)-4,4-dimethylcyclohex-1-en-1-yl]methyl}piperazin-1-yl)-N-({4-[(1-methylpiperidin-4-yl)amino]-3-nitrophenyl}sulfonyl)benzamide] — 96-fold higher, 10.9 nM
- CCN1CCC(Nc2ccc(S(=O)(=O)NC(=O)c3ccc(N4CCN(CC5=C(c6ccc(Cl)cc6)CC(C)(C)CC5)CC4)cc3Oc3ccccc3Cl)cc2[N+](=O)[O-])CC1 [Example 47, 2-(2-chlorophenoxy)-4-(4-((2-(4-chlorophenyl)-4,4-dimethylcyclohex-1-en-1-yl)methyl)piperazin-1-yl)-N-((4-((1-ethylpiperidin-4-yl)amino)-3-nitrophenyl)sulfonyl)benzamide] — 2.3-fold lower, 0.05 nM
- CC1(C)CC(c2ccc(Cl)cc2)=C(CN2CCN(c3ccc(C(=O)NS(=O)(=O)c4ccc(NC5CCC(N6CCOCC6)CC5)c([N+](=O)[O-])c4)c(Oc4cc5cc[nH]c5cc4F)c3)CC2)CO1 (stereo not shown) [Example 295, 4-(4-{[4-(4-chlorophenyl)-6,6-dimethyl-5,6-dihydro-2H-pyran-3-yl]methyl}piperazin-1-yl)-2-[(6-fluoro-1H-indol-5-yl)oxy]-N-({4-[(4-morpholin-4-ylcyclohexyl)amino]-3-nitrophenyl}sulfonyl)benzamide] — within 1.5-fold, 0.077 nM
- CC1(C)CCC(CN2CCN(c3ccc(C(=O)NS(=O)(=O)c4ccc(NC5CCN(C6CC6)CC5)c([N+](=O)[O-])c4)c(Oc4cnc(N)c(Cl)c4)c3)CC2)=C(c2ccc(Cl)cc2)C1 [Example 358, 2-[(6-amino-5-chloropyridin-3-yl)oxy]-4-(4-{[2-(4-chlorophenyl)-4,4-dimethylcyclohex-1-en-1-yl]methyl}piperazin-1-yl)-N-({4-[(1-cyclopropylpiperidin-4-yl)amino]-3-nitrophenyl}sulfonyl)benzamide] — 1.8-fold lower, 0.062 nM
- CN1CCC(Nc2ccc(S(=O)(=O)NC(=O)c3ccc(N4CCN(CC5=C(c6ccc(Cl)cc6)CC(C)(C)CC5)CC4)cc3Oc3cccc(C(F)(F)F)c3Cl)cc2[N+](=O)[O-])CC1 [Example 64, 4-(4-((2-(4-chlorophenyl)-4,4-dimethylcyclohex-1-en-1-yl)methyl)piperazin-1-yl)-2-(2-chloro-3-(trifluoromethyl)phenoxy)-N-((4-((1-methylpiperidin-4-yl)amino)-3-nitrophenyl)sulfonyl)benzamide] — 4-fold higher, 0.458 nM
- CC1(C)CCC(CN2CCN(c3ccc(C(=O)NS(=O)(=O)c4ccc(NCC5CCOCC5)c([N+](=O)[O-])c4)c(Oc4cc(N)nc(Br)c4)c3)CC2)=C(c2ccc(Cl)cc2)C1 [Example 379, 2-[(2-amino-6-bromopyridin-4-yl)oxy]-4-(4-{[2-(4-chlorophenyl)-4,4-dimethylcyclohex-1-en-1-yl]methyl}piperazin-1-yl)-N-({3-nitro-4-[(tetrahydro-2H-pyran-4-ylmethyl)amino]phenyl}sulfonyl)benzamide] — 160-fold higher, 17.9 nM
- CC1(C)CCC(CN2CCN(c3ccc(C(=O)NS(=O)(=O)c4ccc(OCC5(F)CCOCC5)c([N+](=O)[O-])c4)c(Oc4cc5cc[nH]c5cc4F)c3)CC2)=C(c2ccc(Cl)cc2)C1 [Example 296, 4-(4-{[2-(4-chlorophenyl)-4,4-dimethylcyclohex-1-en-1-yl]methyl}piperazin-1-yl)-2-[(6-fluoro-1H-indol-5-yl)oxy]-N-({4-[(4-fluorotetrahydro-2H-pyran-4-yl)methoxy]-3-nitrophenyl}sulfonyl)benzamide] — lower, < 0.01 nM
- CC1(C)CCC(CN2CCN(c3ccc(C(=O)NS(=O)(=O)c4ccc(N[C@@H]5CCN(C(CF)CF)C5)c([N+](=O)[O-])c4)c(Oc4cnc(N)c(Cl)c4)c3)CC2)=C(c2ccc(Cl)cc2)C1 [Example 394, 2-[(6-amino-5-chloropyridin-3-yl)oxy]-4-(4-{[2-(4-chlorophenyl)-4,4-dimethylcyclohex-1-en-1-yl]methyl}piperazin-1-yl)-N-{[4-({(3R)-1-[2-fluoro-1-(fluoromethyl)ethyl]pyrrolidin-3-yl}amino)-3-nitrophenyl]sulfonyl}benzamide] — 6.3-fold lower, 0.018 nM
- CC1(C)CCC(CN2CCN(c3ccc(C(=O)NS(=O)(=O)c4ccc(NC5CCN(C6CC6)CC5)c([N+](=O)[O-])c4)c(Oc4ccccc4F)c3)CC2)=C(c2ccc(Cl)cc2)C1 [Example 123, 4-(4-{[2-(4-chlorophenyl)-4,4-dimethylcyclohex-1-en-1-yl]methyl}piperazin-1-yl)-N-({4-[(1-cyclopropylpiperidin-4-yl)amino]-3-nitrophenyl}sulfonyl)-2-(2-fluorophenoxy)benzamide] — within 1.5-fold, 0.11 nM
- CN1CCC(Nc2ccc(S(=O)(=O)NC(=O)c3ccc(N4CCN(CC5=C(c6ccc(Cl)cc6)CC(C)(C)CC5)CC4)cc3Oc3cccc(F)c3)cc2[N+](=O)[O-])CC1 [Example 112, 4-(4-{[2-(4-chlorophenyl)-4,4-dimethylcyclohex-1-en-1-yl]methyl}piperazin-1-yl)-2-(3-fluorophenoxy)-N-({4-[(1-methylpiperidin-4-yl)amino]-3-nitrophenyl}sulfonyl)benzamide] — 2.7-fold lower, 0.042 nM
- CN1CCN(Nc2ccc(S(=O)(=O)NC(=O)c3ccc(N4CCN(CC5=C(c6ccc(Cl)cc6)CC(C)(C)CC5)CC4)cc3Oc3cc4cc[nH]c4c(F)c3F)cc2[N+](=O)[O-])CC1 [Example 220, 4-(4-{[2-(4-chlorophenyl)-4,4-dimethylcyclohex-1-en-1-yl]methyl}piperazin-1-yl)-2-[(6,7-difluoro-1H-indol-5-yl)oxy]-N-({4-[(4-methylpiperazin-1-yl)amino]-3-nitrophenyl}sulfonyl)benzamide] — within 1.5-fold, 0.127 nM
- CC(C)(C)OC(=O)Nc1cccc(Oc2cc(N3CCN(Cc4ccccc4-c4ccc(Cl)cc4)CC3)ccc2C(=O)NS(=O)(=O)c2ccc(NCC3CCOCC3)c([N+](=O)[O-])c2)c1 [Example 85, tert-butyl 3-(5-(4-((4′-chloro-1,1′-biphenyl-2-yl)methyl)piperazin-1-yl)-2-((((3-nitro-4-((tetrahydro-2H-pyran-4-ylmethyl)amino)phenyl)sulfonyl)amino)carbonyl)phenoxy)phenylcarbamate] — 49-fold higher, 5.63 nM
- CN(C)CCCNc1ccc(S(=O)(=O)NC(=O)c2ccc(N3CCN(CC4=C(c5ccc(Cl)cc5)CC(C)(C)CC4)CC3)cc2Oc2cccc3[nH]cc(CN4CCN(C)CC4)c23)cc1[N+](=O)[O-] [Example 213, 4-(4-{[2-(4-chlorophenyl)-4,4-dimethylcyclohex-1-en-1-yl]methyl}piperazin-1-yl)-N-[(4-{[3-(dimethylamino)propyl]amino}-3-nitrophenyl)sulfonyl]-2-({3-[(4-methylpiperazin-1-yl)methyl]-1H-indol-4-yl}oxy)benzamide] — 3.7-fold lower, 0.031 nM
- CC1(C)CCC(CN2CCN(c3ccc(C(=O)NS(=O)(=O)c4ccc(NCC5CCOCC5)c([N+](=O)[O-])c4)c(Oc4ccc(NC(=O)OC(C)(C)C)nc4)c3)CC2)=C(c2ccc(Cl)cc2)C1 [Example 270, tert-butyl 5-(5-(4-{[2-(4-chlorophenyl)-4,4-dimethylcyclohex-1-en-1-yl]methyl}piperazin-1-yl)-2-{[({3-nitro-4-[(tetrahydro-2H-pyran-4-ylmethyl)amino]phenyl}sulfonyl)amino]carbonyl}phenoxy)pyridin-2-ylcarbamate] — higher, > 1200 nM
- CN1CCC(Nc2ccc(S(=O)(=O)NC(=O)c3ccc(N4CCN(CC5=C(c6ccc(Cl)cc6)CC(C)(C)CC5)CC4)cc3Oc3cccc(F)c3Cl)cc2[N+](=O)[O-])CC1 [Example 177, 2-(2-chloro-3-fluorophenoxy)-4-(4-{[2-(4-chlorophenyl)-4,4-dimethylcyclohex-1-en-1-yl]methyl}piperazin-1-yl)-N-({4-[(1-methylpiperidin-4-yl)amino]-3-nitrophenyl}sulfonyl)benzamide] — 3.1-fold lower, 0.037 nM
- CN1CCC(Nc2ccc(S(=O)(=O)NC(=O)c3ccc(N4CCN(CC5=C(c6ccc(Cl)cc6)CC(C)(C)CC5)CC4)cc3Oc3cc(F)c4[nH]ccc4c3)cc2[N+](=O)[O-])CC1 [Example 50, 4-(4-((2-(4-chlorophenyl)-4,4-dimethylcyclohex-1-en-1-yl)methyl)piperazin-1-yl)-2-((7-fluoro-1H-indol-5-yl)oxy)-N-((4-((1-methylpiperidin-4-yl)amino)-3-nitrophenyl)sulfonyl)benzamide] — 1.8-fold lower, 0.062 nM
